Activity calls are given as the source filed them. How the calls were made is not given here.
Biological target: Influenza A virus M2 proton channel (A/TW/4845/1999 H1N1)
Assay: M2 proton channel binding, NMR based, influenza A virus H1N1 strain (AID 1549)
Conditions: NMR binding screen, M2 protein

SMILES | Kd
COc1ccccc1N1C(=N)SCC1=O | > 4 mM (inactive)
CC(C)[C@@H]1CC[C@@H](C)CC1=O | > 4 mM (inactive)
CN1CCN(CC(O)c2ccccc2)CC1 (centres undefined) | > 4 mM (inactive)
Nc1cccc2c(=O)[nH][nH]c(=O)c12 | > 4 mM (inactive)
COc1cccc(S(=O)(=O)Nc2cccnc2)c1 | > 4 mM (inactive)
O=c1[nH]cc(S(=O)(=O)Nc2ccccc2)c(=O)[nH]1 | > 4 mM (inactive)
COc1ccccc1Nc1nncc(=O)[nH]1 | > 4 mM (inactive)
Cc1ccc(S(=O)(=O)/N=C2\NC(=O)CS2)cc1 | > 4 mM (inactive)
CCOC(=O)Cn1cnc2c1c(=O)[nH]c(=O)n2C | > 4 mM (inactive)
CC1(C)CC[C@]2(C(=O)O)CC[C@]3(C)C(=CCC4[C@@]5(C)CC[C@@H](O)C(C)(C)C5CC[C@]43C)C2C1 (some centres undefined) | > 4 mM (inactive)
O=c1cnnc(N2CCCCC2)[nH]1 | > 4 mM (inactive)
O=C1C=C(O)c2ccccc2C1=O | > 4 mM (inactive)
Cc1cc(N)no1 | > 4 mM (inactive)
O=C1C=CC(=O)c2c(O)cccc21 | > 4 mM (inactive)
Cn1cnc2c(=O)[nH]cc([N+](=O)[O-])c21 | > 4 mM (inactive)
O=S1(=O)CCC(NC(=S)N2CCOCC2)C1 (centres undefined) | > 4 mM (inactive)
O=C(O)c1cc2ccccc2cn1 | > 4 mM (inactive)
CSc1ccccc1NC(=O)c1c(C)noc1C | > 4 mM (inactive)
Cc1ccc(SCC(=O)N2CCOCC2)cc1 | > 4 mM (inactive)
CN(C)c1oc(-c2ccccc2Cl)nc1C#N | > 4 mM (inactive)
c1ccc(-c2noc(-c3ccc4c(c3)OCO4)n2)nc1 | > 4 mM (inactive)
NC(N)=Nc1nc2ccccc2o1 | > 4 mM (inactive)
COC(=O)CC1NC2CCCCC2NC1=O (centres undefined) | > 4 mM (inactive)
COC(=O)C[C@H]1C2(C)CC34OC5(C)O[C@@]6([C@H](OC(C)=O)C(OC(C)=O)[C@]7(C)C(/C(=C(/O)C(C)C)C(=O)O[C@H]7c7ccoc7)[C@@]6(O5)[C@H](OC(C)=O)[C@@]3(O)C2OC(=O)C(C)C)[C@]14C (some centres undefined) | > 4 mM (inactive)

SMILES | Kd
NC(=S)CN1CCCC1=O | > 4 mM (inactive)
CC(=O)O[C@@H]1CC2C(C)(C)[C@H](O)C=C[C@]2(C)C2CC[C@@]3(C)[C@H](c4ccoc4)OC(=O)C4OC43[C@@]21C (some centres undefined) | > 4 mM (inactive)
Cc1ccc(-n2ncc(C#N)c2/N=C/N(C)C)cc1 | > 4 mM (inactive)
Cc1nc(-c2ccccc2)ncc1CO | > 4 mM (inactive)
c1ccc(Cc2nn3c(-c4ccncc4)nnc3s2)cc1 | > 4 mM (inactive)
NC(N)=NCCCCN=C(N)N | > 4 mM (inactive)
CCN1C[C@@]2(COC)C3[C@@H](OC)[C@H]4[C@@H]1[C@]3(C(OC)C[C@H]2O)C1C[C@@]2(O)[C@H](OC(=O)c3ccccc3)C1[C@]4(OC(C)=O)[C@@H](O)[C@@H]2OC (some centres undefined) | > 4 mM (inactive)
CC(=O)NC1C(=O)Nc2c(C)cc(C)cc21 (centres undefined) | > 4 mM (inactive)
CN1CCC(O)N1C(=O)c1ccccc1O (centres undefined) | > 4 mM (inactive)
CCCc1nc2ccccc2c2nc(N)nn12 | > 4 mM (inactive)
O=C(Nc1ccc2ccccc2c1)c1cnccn1 | > 4 mM (inactive)
CC(O)c1ccc(C(C)O)cc1 (centres undefined) | > 4 mM (inactive)
CSc1ccc2nnc(-c3cccnc3)n2n1 | > 4 mM (inactive)
CC(Sc1ncn[nH]1)C(=O)O (centres undefined) | > 4 mM (inactive)
Cc1c(N=CN(C)C)c(=O)n(-c2ccccc2)n1C | > 4 mM (inactive)
Cc1cccnc1NC1=NCC(C)S1 (centres undefined) | > 4 mM (inactive)
Cc1cc(=O)cc(C)n1-c1ccccc1N | > 4 mM (inactive)
C[C@]12C=CC(=O)C=C1CCC1C2CC[C@]2(C)C(=O)CCC12 (some centres undefined) | > 4 mM (inactive)
COc1ccc(-c2ccc(OC)cc2C(=O)O)cc1 | > 4 mM (inactive)
O=C(O)c1ccc(-n2cccn2)cc1 | > 4 mM (inactive)
Nc1nc(-c2ccc(F)c(F)c2)cs1 | > 4 mM (inactive)
CC(=O)N1CCN(C2CCSC2)CC1 (centres undefined) | > 4 mM (inactive)
CNS(=O)(=O)c1cccs1 | > 4 mM (inactive)
O=C(Nc1cccc(O)c1)c1ccccc1 | > 4 mM (inactive)

SMILES | Kd
O=C1N/C(=N\c2ccccn2)SC1Cc1ccccc1 (centres undefined) | > 4 mM (inactive)
O=c1c(O)c(-c2ccccc2)oc2ccc3occc3c12 | > 4 mM (inactive)
NC(=O)CSc1nnc(-c2ccncc2)o1 | > 4 mM (inactive)
C=CCCCCCCCCCCCc1ccco1 | > 4 mM (inactive)
Cn1c(SCC(N)=O)nc2ccccc2c1=O | > 4 mM (inactive)
COc1ccc(-c2coc3cc(O)ccc3c2=O)c(O)c1O | > 4 mM (inactive)
Oc1cnc2ccccc2c1CN1CCOCC1 | > 4 mM (inactive)
S=c1[nH]nc(-c2cccnc2)n1Cc1ccccc1 | > 4 mM (inactive)
CCOC(=O)C1CCNCC1 | > 4 mM (inactive)
O=c1ccn(Cc2ccccc2)c(=O)n1Cc1ccccc1 | > 4 mM (inactive)
C=CC(C1=CC(=O)C(OC)=CC1=O)c1ccccc1 (centres undefined) | > 4 mM (inactive)
Cc1n[nH]c(=S)n(/N=C/c2ccccc2)c1=O | > 4 mM (inactive)
C[C@@H]1O[C@@H](O[C@H]2CC[C@]3(C=O)C4CC[C@]5(C)[C@@H](C6=CC(=O)OC6)CC[C@]5(O)C4CC[C@]3(O)C2)[C@H](O)[C@H](O)[C@H]1O (some centres undefined) | > 4 mM (inactive)
CC(=O)NC(C)C12CC3CC(CC(C(=O)O)(C3)C1)C2 (centres undefined) | > 4 mM (inactive)
CCC(CCC(C)[C@H]1CCC2C3CC=C4C[C@@H](O)CC[C@]4(C)C3CC[C@@]21C)C(C)C (some centres undefined) | > 4 mM (inactive)
Cc1nc(-c2cc(C(=O)O)no2)cs1 | > 4 mM (inactive)
O=S1(=O)CCC(NCCO)C1 (centres undefined) | > 4 mM (inactive)
OC12CC3CC(C1)C1(NCCS1)C(C3)C2 (centres undefined) | > 4 mM (inactive)
Cc1cc(=O)n2[nH]c(N)nc2n1 | > 4 mM (inactive)
O=C(O)c1cccc2c1OCC2 | > 4 mM (inactive)
CC1(C)CC2C1CC[C@]1(C)CCC3C(C(=O)O)CC(=O)O[C@@]32C1 (some centres undefined) | > 4 mM (inactive)
O=C(NC12CC3CC(CC(C3)C1)C2)c1cnccn1 | > 4 mM (inactive)
Cc1[nH]n(-c2ccccc2)c(=O)c1[N+](=O)[O-] | > 4 mM (inactive)
CCOC(=O)c1c(C)nc2c(C#N)cnn2c1C | > 4 mM (inactive)

SMILES | Kd
O=C(O)C1CC(C2CCCCN2)CN2CCCCC12 (centres undefined) | > 4 mM (inactive)
S=c1[nH]nc(-c2cccnc2)n1C1CCCCC1 | > 4 mM (inactive)
CCOC(=O)c1[nH]c(C)cc1C | > 4 mM (inactive)
OCCNc1ccccn1 | > 4 mM (inactive)
COCc1cc(Cl)nc(-c2csc(C)n2)n1 | > 4 mM (inactive)
NCc1oc(-c2ccccc2)cc1C(=O)O | > 4 mM (inactive)
CC(=O)c1sc(NC(=O)C=C(C)C)nc1C | > 4 mM (inactive)
Cc1csc(NC(=O)c2ccoc2C)n1 | > 4 mM (inactive)
COc1ccc2c(c1)O[C@H]1c3ccc(OC)cc3OC[C@@H]21 | > 4 mM (inactive)
CC(=O)n1c(N)nc2ccccc21 | > 4 mM (inactive)
Fc1ccc(CN2CCCNCC2)cc1 | > 4 mM (inactive)
Cc1ccc(CO)o1 | > 4 mM (inactive)
Cc1n[nH]c(=S)n(/N=C/c2cccs2)c1=O | > 4 mM (inactive)
Nc1ccc(-n2cccc2)cc1 | > 4 mM (inactive)
O=C(O)c1ccc2ncccc2c1 | > 4 mM (inactive)
CC1(C)Oc2ccc(N)cc2O1 | > 4 mM (inactive)
COc1cc2[nH]c(=S)n(C)c(=O)c2cc1OC | > 4 mM (inactive)
C/C1=C\CCC(=O)C2CC(C)(C)C2CC1 (centres undefined) | > 4 mM (inactive)
COc1ccc(CN2CCNC(=O)C2CC(=O)O)cc1C (centres undefined) | > 4 mM (inactive)
O=C(O)c1ccc(N2CCOCC2)nc1 | > 4 mM (inactive)
COc1ccc(NC(=O)/C=N/O)cc1 | > 4 mM (inactive)
Nc1nc2ccc(N3CCOCC3)cc2s1 | > 4 mM (inactive)
CC1=NN(c2ccc(N)cc2)C(=O)C1 | > 4 mM (inactive)
O=C1c2cccc3cc(S(=O)(=O)O)cc(c23)C(=O)N1O | > 4 mM (inactive)

SMILES | Kd
O=C(O)c1csc(-c2ccccc2)n1 | > 4 mM (inactive)
Cc1occc1C(=O)Nc1nnc(-c2ccncc2)s1 | > 4 mM (inactive)
Cc1cc(C(=O)N2CCC3(CC2)OCCO3)cs1 | > 4 mM (inactive)
Clc1ccc(-c2nnc3ccccn23)cc1 | > 4 mM (inactive)
COc1cc(-c2csc(C)n2)ccc1O | > 4 mM (inactive)
O=C(NCO)c1ccc([N+](=O)[O-])cc1 | > 4 mM (inactive)
Cc1nnc(N2CCN(Cc3ccccc3)CC2)[nH]c1=O | > 4 mM (inactive)
CN(C)S(=O)(=O)c1ccc(NC=O)cc1 | > 4 mM (inactive)
N[C@@H](C(=O)O)[C@@H](O)[C@H](O)[C@H](O)CO | > 4 mM (inactive)
CS(=O)(=O)N1CCC(C(=O)NC2CCCC2)CC1 | > 4 mM (inactive)
CNC(=O)Oc1ccc2c(c1)[C@]1(C)CCN(C)[C@@H]1N2C | > 4 mM (inactive)
Cc1cc2ncn(S(=O)(=O)N3CCOCC3)c2cc1C | > 4 mM (inactive)
Cc1cc(/C=N/O)nc(=O)[nH]1 | > 4 mM (inactive)
O=C(OCc1c(Cl)cccc1Cl)c1cnccn1 | > 4 mM (inactive)
O=C(/C=C/c1ccc(O)cc1)c1ccc(O)cc1O | > 4 mM (inactive)
COc1cc2c(cc1OC)C1Cc3ccc(OC)c(OC)c3CN1CC2 (centres undefined) | > 4 mM (inactive)
COC(=O)c1ccc(N2CCCC2)nc1 | > 4 mM (inactive)
COc1cc(C(=S)N2CCC(C(N)=O)CC2)ccc1O | > 4 mM (inactive)
CCOC(=O)C1=C(O)CCN(C)C1 | > 4 mM (inactive)
O=C(NN1C(=O)C2C3C=CC(C3)C2C1=O)C1CC=CCC1 (centres undefined) | > 4 mM (inactive)
Cc1nc2ccc(C(=O)O)cc2[nH]1 | > 4 mM (inactive)
C1CCN2C[C@@H]3C[C@H](CN4CCCC[C@@H]34)[C@H]2C1 | > 4 mM (inactive)
O=C1Nc2ccc(S(=O)(=O)NCCO)c3cccc1c23 | > 4 mM (inactive)

— PubChem BioAssay AID1549 (Sanford-Burnham Center for Chemical Genomics, 2009)
